Data as given in patent US8853271B2, “Method for inhibiting activity and/or expression of matrix metalloproteinase, inhibiting phosphorylation of mitogen-activated protein kinase, and/or promoting expression of collagen using tormentic acid” (China Medical University, priority 2010, dated 2014).

Columns and labels:
[1] = system: bacterial matrix metalloproteinase; test: Decomposition test of gelatin (inhibition of matrix metalloproteinase activity); format: biochemical
Procedure: (§1) In addition to collagen decomposing, matrix metalloproteinase (collagenase) has the effect of gelatin decomposing. The property of the fluorescence generation of decomposed gelatin and decomposed commercial substrates of collagenase (purchased from Calbiochem, la Jolla, […]) was used in this example to evaluate the inhibitory effect of tormentic acid on the matrix metalloproteinase.
A 50 μl buffer solution (pH 7.8, contained 50 mM Tris-HCl, 10 mM calcium chloride, and 0.15 M sodium chloride), 30 μl sterile water, and 10 μl bacterial matrix metalloproteinase (0.1 mg/ml, Sigma) were added into an eppendorf tube, and then a 10 μl solution of tormentic acid ([…]) or doxycycline as the positive control was added into the eppendorf tube. The mixture was well mixed, and incubated at room temperature for 60 minutes.
The mixture (30 μl) was drawn and dropped on a circular filter paper covering a gelatin culture medium, and then the filter paper along with the medium was placed into an incubator under 37° C. After incubating for 18 hours, the filter paper was removed. The culture medium was stained with a Coomassie Blue R-250 staining solution (purchased from Amresco company, America), and then was destained with a destaining solution. Because gelatin decomposed by matrix metalloproteinase will not be stained by the Coomassie Blue staining solution, the transparency of the culture medium may reveal the activity of the matrix metalloproteinase. After the culture medium was photographed, the picture was analyzed by an image analysis software (AlphaDigiDoc 1201, purchased from Alpha Innotech Co., America) to calculate the inhibition rate of tormentic acid on the activity of gelatin decomposition of the matrix metalloproteinase.

[2] = system: matrix metalloproteinase (collagenase, Sigma); test: Fluorogenic substrate test (collagenase substrate III); format: biochemical
Description: as §1
A specific amount of a solution of the collagenase substrate III (Mcc-Pro-Leu-Gly-Pro-D-Lys (DNP)—OH, purchased from Calbiochem, la Jolla, […]), a matrix metalloproteinase (collagenase, Sigma) solution, tormentic acid or doxycycline as the positive control were mixed and added to a 96 well plate. Then, an ELISA reader was used to determine the […] (405 nm), respectively. The results are shown in Table 2 and FIG. 3, wherein ΔF is the fluorescence value that the basic fluorescence value at time zero has been deducted.

[3] = system: WS1 human skin dermal fibroblasts; test: Test of cell survival rate (MTS assay) under UV exposure; format: cell-based; conditions: for absorption value (MTS, 490 nm) / survival rate (%): UV 90 mJ/cm^2, 24 hours; for death of the cells (in words): 90 mJ/cm^2 UV
Procedure: The following experiment was carried out by using WS1 human skin dermal fibroblasts (purchased from Food Industry Research and Development Institute, Taiwan). Under exposure to the ultraviolet ray (UV) with the intensity range from 0 mJ/cm^2 to 120 mJ/cm^2, it will not cause death to WS1 human skin dermal fibroblasts. Thus, this experiment was carried out at the UV intensity of 90 mJ/cm^2. First, tormentic acid of various concentrations (0, 0.1, 1.0, 2.0, or 10 μg/ml) was added to a culture medium (comprising α-minimum essential medium, 10% heat-inactivated Fetal Bovine Serum, 100 U/ml penicillin, and 100 μg/ml Streptomycin) containing the WS1 human skin dermal fibroblasts. After the cells were cultured for 24 hours, an MTS (3-(4,5-di-methylthiazol-2-yl)-5-(3-carboxymethoxy phenyl)-2-(4-sulfophenyl)-2H-tetrazolium, commercially available from Promega, Madison, Wis., America) assay was carried out to observe the cell survival rate, and the results are shown in Table 3. The mechanism of the MTS assay is as follows: the dehydrogenase activity of living cells can reduce MTS to a water soluble product that is red purple in color, which has a maximum absorption at a wavelength of 490 nm, and thus, the cell survival rate can be evaluated by absorption values.

procollagen-1 = test: Western blotting of procollagen-1 in UV-exposed fibroblasts; format: cell-based, human; conditions: WS1 fibroblasts exposed to UV for 24 hours, treated for 1 hour before collection
[4] = system: matrix metalloproteinase-1; test: Western blotting of matrix metalloproteinase-1 in UV-exposed fibroblasts; format: cell-based, human; conditions: WS1 fibroblasts exposed to UV for 24 hours, treated for 1 hour before collection
[5] = system: c-Jun N-terminal Kinase (JNK); test: Western blotting of phosphorylated JNK in UV-exposed fibroblasts; format: cell-based, human; conditions: WS1 fibroblasts exposed to UV for 24 hours, treated for 1 hour before collection
Procedure: (§2) The skin “photo-aging” caused by ultraviolet rays may lead to an increase of matrix metalloproteinase in the dermis via the phosphorylation of the mitogen-activated protein kinase (MAPK), and thus a western blotting assay was also carried out in this experiment to observe the effect of tormentic acid on the phosphorylation of mitogen-activated protein kinase in cells; the result is shown in FIG. 5.
(§3) However, when the cells were treated with tormentic acid for 1 hour before collection, the phosphorylation of JNK, ERK, and p38 can be inhibited.

[6] = system: extracellular signal-regulated protein kinase (ERK); test: Western blotting of phosphorylated ERK in UV-exposed fibroblasts; format: cell-based, human; conditions: WS1 fibroblasts exposed to UV for 24 hours, treated for 1 hour before collection
Procedure: as §2, §3

p38 protein = test: Western blotting of phosphorylated p38 in UV-exposed fibroblasts; format: cell-based, human; conditions: WS1 fibroblasts exposed to UV for 24 hours, treated for 1 hour before collection
Procedure: as §2, §3

c-Jun = test: Western blotting of AP-1 subunit c-Jun in the nucleus; format: cell-based, human; conditions: WS1 fibroblasts exposed to UV for 24 hours, treated for 1 hour before collection
Description: (§4) The UV exposure of cells induces JNK and p38 to activate c-Jun, which then enters into the nucleus. Then, c-Fos translocates into the nucleus under the regulation of ERK and p38. A c-Jun subunit combines with a c-Fos subunit to form an activator protein 1 (AP-1) gene transcription factor, which then participates in gene expression to promote the transcription of message RNA (mRNA) of matrix metalloproteinase-1 (MMP-1) and reduces the gene expression of procollagen-Iα1 (procollagen α1 of Type I collagen). Thus, a western blotting assay was carried out in this experiment to further observe the protein expression of AP-1 in the nucleus, and the result is shown in FIG. 6. After the WS1 human skin dermal fibroblasts were exposed to UV rays for 24 hours, the expression level of c-Jun and c-Fos in the nucleus were increased. However, when the cells were treated with tormentic acid for 1 hour before collection, the expression of c-Jun and c-Fos were inhibited.

c-Fos = test: Western blotting of AP-1 subunit c-Fos in the nucleus; format: cell-based, human; conditions: WS1 fibroblasts exposed to UV for 24 hours, treated for 1 hour before collection
Description: as §4

SMILES: C[C@@H]1CC[C@]2(C(=O)O)CC[C@]3(C)C(=CC[C@@H]4[C@@]5(C)C[C@@H](O)[C@H](O)C(C)(C)[C@@H]5CC[C@]43C)[C@@H]2[C@]1(C)O [tormentic acid]
- Inhibition rate (%) of gelatin decomposing activity ([1]; 25 μg/ml): 3.7%
- Inhibition rate (%) of gelatin decomposing activity ([1]; 50 μg/ml): 24.0%
- Inhibition rate (%) of gelatin decomposing activity ([1]; 100 μg/ml): 62.7%
- Inhibition rate (%) of gelatin decomposing activity ([1]; 200 μg/ml): 75.3%
- activity of gelatin decomposition of the matrix metalloproteinase (in words) ([1]; 25-200 μg/ml): significantly inhibited
- generation of fluorescence from collagenase substrate III (in words) [2]: can reduce the generation of fluorescence
- Inhibition rate (collagenase substrate III decomposition) ([2]; 50 μg/ml): (39%)
- ΔF (fluorescence value, time-zero value deducted) ([2]; 50 μg/ml): 54.8 ± 8.4
- Inhibition rate (collagenase substrate III decomposition) ([2]; 100 μg/ml): (44.7%)
- ΔF (fluorescence value, time-zero value deducted) ([2]; 100 μg/ml): 49.8 ± 7.2
- Inhibition rate (collagenase substrate III decomposition) ([2]; 250 μg/ml): (79.1%)
- ΔF (fluorescence value, time-zero value deducted) ([2]; 250 μg/ml): 18.8 ± 10.8
- absorption value (MTS, 490 nm) ([3]; 0.1 μg/ml): 1.08 ± 0.95
- survival rate (%) ([3]; 0.1 μg/ml): 103.8%
- absorption value (MTS, 490 nm) ([3]; 1.0 μg/ml): 1.10 ± 0.97
- survival rate (%) ([3]; 1.0 μg/ml): 105.8%
- absorption value (MTS, 490 nm) ([3]; 2.0 μg/ml): 1.10 ± 0.98
- survival rate (%) ([3]; 2.0 μg/ml): 105.8%
- absorption value (MTS, 490 nm) ([3]; 10.0 μg/ml): 0.83 ± 0.70
- survival rate (%) ([3]; 10.0 μg/ml): 79.8%
- death of the cells (in words) ([3]; concentration of 10 μg/ml): caused the death of the cells
- death of the cells (in words) ([3]; concentration of lower than 2 μg/ml): did not cause the death of the cells
- cytotoxicity (in words) ([3]; low concentration): no cytotoxicity
- expression of procollagen-1 (procollagen-1): increased
- expression of matrix metalloproteinase-1 [4]: inhibited
- phosphorylation of JNK [5]: inhibited
- phosphorylation of ERK [6]: inhibited
- phosphorylation of p38 (p38 protein): inhibited
- expression of c-Jun in the nucleus (c-Jun): inhibited
- expression of c-Fos in the nucleus (c-Fos): inhibited
